According to patent US20120122840A1, “COMPOUNDS AND THERAPEUTIC USES THEREOF” (Myrexis, Inc., priority 2009, published 2012):

Assays:
Assay type in all cases: cell-based
DMS-114 = experiment: CellTiter Glo cell viability, 7 days; settings: Homo sapiens, 168 h, lung, read-out: 7 day IC50
Experimental: (§1) The compounds of the present invention were tested against a panel of cancer cells to determine the effect on cell viability. Viability was determined by measuring cellular ATP levels using CellTiter Glo reagent (Promega, Madison, Wis.).
(§2) MATERIALS: • A. Cancer cell lines obtained from ATCC or DSMZ • B. RPMI supplemented with 10% FBS/L-glutamine/NEAA/HEPES/Na-Pyruvate • C. DMEM supplemented with 10% FBS and L-glutamine. • B. Compounds, typically 50 mM stocks diluted in DMSO; • C. Clear, flat, TC-surface bottomed 96-well microplates (Corning #3595) • D. CellTiter-Glo® Luminescent Cell Viability Assay (Promega #G7573)
(§3) METHODS: • 1. Cells were plated at densities of 2000-5000 cells per well in 100 μl volume on a 96-well plate, and were incubated overnight. • 2. Test compound(s) were serially diluted to the desired 250× concentration. • 3. For each concentration of compound to be tested, 0.4 μl of 250× compound was added in triplicate to the cell plates. Plates were then incubated at 37° C. for 7 days. • 4. 100 μL of prepared CellTiter Glo reagent was added to treated cells, and plates were gently mixed for 2 minutes, and equilibrated for 10 minutes at room temperature. • 5. Luminescence was measured and the viability of treated cells relative to DMSO control was calculated.
(§4) Cancer cell lines were treated with TTK inhibitor for 7 days and cell viability was measured using the CellTiter Glo assay (Promega, Madison, Wis.).

HCT-15 = experiment: CellTiter Glo cell viability, 7 days; settings: Homo sapiens, 168 h, colon, read-out: 7 day IC50
Experimental: as §1, §2, §3, §4

DU-145 = experiment: CellTiter Glo cell viability, 7 days; settings: Homo sapiens, 168 h, prostate, read-out: 7 day IC50
Experimental: as §1, §2, §3, §4

IGR-OV1 = experiment: CellTiter Glo cell viability, 7 days; settings: Homo sapiens, IGROV-1, 168 h, ovarian, read-out: 7 day IC50
Experimental: as §1, §2, §3, §4

MDA-MB-436 = experiment: CellTiter Glo cell viability, 7 days; settings: Homo sapiens, 168 h, breast, read-out: 7 day IC50
Experimental: as §1, §2, §3, §4

BxPC-3 = experiment: CellTiter Glo cell viability, 7 days; settings: Homo sapiens, 168 h, pancreas, read-out: 7 day IC50
Experimental: as §1, §2, §3, §4

786-0 = experiment: CellTiter Glo cell viability, 7 days; settings: Homo sapiens, 168 h, kidney, read-out: 7 day IC50
Experimental: as §1, §2, §3, §4

U-87MG = experiment: CellTiter Glo cell viability, 7 days; settings: Homo sapiens, 168 h, CNS, read-out: 7 day IC50
Experimental: as §1, §2, §3, §4

MCF-7 = experiment: CellTiter Glo cell viability, 7 days; settings: Homo sapiens, MCF7, 168 h, breast, read-out: 7 day IC50
Experimental: as §1, §2, §3, §4

MDA-MB-231 = experiment: CellTiter Glo cell viability, 7 days; settings: Homo sapiens, 168 h, breast, read-out: 7 day IC50
Experimental: as §1, §2, §3, §4

BT-474 = experiment: CellTiter Glo cell viability, 7 days; settings: Homo sapiens, 168 h, breast, read-out: 7 day IC50
Experimental: as §1, §2, §3, §4

HCC827 = experiment: CellTiter Glo cell viability, 7 days; settings: Homo sapiens, 168 h, lung, read-out: 7 day IC50
Experimental: as §1, §2, §3, §4

PANC1 = experiment: CellTiter Glo cell viability, 7 days; settings: Homo sapiens, PANC-1, 168 h, pancreas, read-out: 7 day IC50
Experimental: as §1, §2, §3, §4

OVCAR-3 = experiment: CellTiter Glo cell viability, 7 days; settings: Homo sapiens, 168 h, ovarian, read-out: 7 day IC50
Experimental: as §1, §2, §3, §4

ZR-75-1 = experiment: CellTiter Glo cell viability, 7 days; settings: Homo sapiens, 168 h, breast, read-out: 7 day IC50
Experimental: as §1, §2, §3, §4

OPM-2 = experiment: CellTiter Glo cell viability, 7 days; settings: Homo sapiens, 168 h, blood, read-out: 7 day IC50
Experimental: as §1, §2, §3, §4

SW-480 = experiment: CellTiter Glo cell viability, 7 days; settings: Homo sapiens, SW480, 168 h, colon, read-out: 7 day IC50
Experimental: as §1, §2, §3, §4

KARPAS-299 = experiment: CellTiter Glo cell viability, 7 days; settings: Homo sapiens, 168 h, blood, read-out: 7 day IC50
Experimental: as §1, §2, §3, §4

Colo-205 = experiment: CellTiter Glo cell viability, 7 days; settings: Homo sapiens, 168 h, colon, read-out: 7 day IC50
Experimental: as §1, §2, §3, §4

DU4475 = experiment: CellTiter Glo cell viability, 7 days; settings: Homo sapiens, DU-4475, 168 h, breast, read-out: 7 day IC50
Experimental: as §1, §2, §3, §4

NCI-N87 = experiment: CellTiter Glo cell viability, 7 days; settings: Homo sapiens, 168 h, gastric, read-out: 7 day IC50
Experimental: as §1, §2, §3, §4

PC-3 = experiment: CellTiter Glo cell viability, 7 days; settings: Homo sapiens, 168 h, prostate, read-out: 7 day IC50
Experimental: as §1, §2, §3, §4

SK-BR-3 = experiment: CellTiter Glo cell viability, 7 days; settings: Homo sapiens, 168 h, breast, read-out: 7 day IC50
Experimental: as §1, §2, §3, §4

OVCAR-5 = experiment: CellTiter Glo cell viability, 7 days; settings: Homo sapiens, 168 h, ovarian, read-out: 7 day IC50
Experimental: as §1, §2, §3, §4

p53 pathway = experiment: Western blot of p53 and p21 in HCT-116 cells
Description: (§5) Image analysis: Cells were fixed and stained with Hoechst dye and anti-(3-tubulin, anti-pericentrin and anti-centromere antibodies. Images were taken on a BD Pathway high content imaging system. For cell cycle analysis, cells were fixed, stained with propidium iodide and analyzed by FACS. For Western blot analysis, cell lysates were run on SDS-polyacrylamide gels and proteins were transferred to PVDF membrane. Membranes were probed with the indicated antibodies.
(§6) Western blot analyses: Cells were lysed in 10 mM Tris-HCl pH 7.5, 1 mM EDTA, 150 mM NaCl, 10% glycerol, protease inhibitor cocktail, phosphatase 1, and phosphatase 2. Protein yields were determined by Bradford assay and equivalent amounts of protein were loaded for each sample.
Antibodies: All antibodies were purchased from Cell Signaling Technology.
Cell lysates were analyzed by Western blot with anti-p53, anti-p21 or anti-β-actin antibodies (see FIG. 4A).
(§7) p53 was previously reported to suppress the expression of survivin. […] Cell lysates were analyzed by Western blot with anti-p53, anti-survivin or anti-β-actin antibodies (see FIG. 4C). […] Induction of p53 preceded the loss of survivin.

HCT-116 cells = experiment: Cell cycle analysis by FACS (propidium iodide); settings: 1 μM, 24, 48 or 72 hours
Description: as §5
Cells were fixed, stained with propidium iodide and analyzed by fluorescence activated cell sorting (FACS) using a FACScan instrument.

histone H2AX = experiment: Western blot of H2AX-pS139 in HCT-116 cells; settings: 1 μM, 7, 24, 36 or 48 hours
Experimental: as §6
Phosphorylation and stabilization of p53 occurs in response to DNA damage. Phosphorylation of H2AX functions to recruit DNA repair enzymes to sites of DNA damage and serves as a marker for DNA double strand breaks. […] Cell lysates were analyzed by Western blot with anti-H2AX-pS139 (gH2AX) or β-actin antibodies. […] Inhibition of TTK induces the phosphorylation of p53 on serine 15 and H2AX on serine 139.

p21 mRNA = experiment: qRT-PCR of p21 mRNA in HCT-116 cells; settings: 1 μM, time course, relative to 7 hour DMSO control
Experimental: For qRT-PCR: Primer probe sets for p21 and GAPDH were purchased from Applied Biosystems. qRT-PCR was performed using the Quantitect Probe RT-PCR Kit from Qiagen following the standard protocol.
The p21 mRNA levels were normalized to the GAPDH mRNA levels from the same total RNA sample.

A549 cells = experiment: Image analysis of chromosome segregation; settings: 10 μM, 24 hours
Description: as §5
Cells were stained with Hoechst dye (blue) and anti-tubulin (green), anti-pericentrin (red) and anti-centromere (white) antibodies.

survivin = experiment: Western blot of survivin in HCT-116 cells; settings: increasing concentrations, 48 hours
Experimental: as §6, §7

p53 = experiment: Western blot with phosphospecific anti-p53 antibodies in HCT-116 cells; settings: 1 μM, 48 hours
Experimental: as §6
Phosphorylation of p53 at various sites on the N-terminus results in the stabilization of p53. […] Cell lysates were analyzed by Western blot with anti-GAPDH, anti-p53 or the phosphospecific anti-p53 antibodies.

Cc1cc(N2CCOCC2)ccc1Nc1nc(NC2CCCCC2)c2nc[nH]c2n1 [N6-cyclohexyl-N2-(2-methyl-4-morpholino-phenyl)-9H-purine-2,6-diamine]
IC50 (DMS-114): 180 nM | IC50 (HCT-15): 280 nM | IC50 (DU-145): 370 nM | IC50 (IGR-OV1): 580 nM | IC50 (MDA-MB-436): 8700 nM | IC50 (BxPC-3): 120 nM | IC50 (786-0): 1200 nM | IC50 (U-87MG): 670 nM | IC50 (MCF-7): 61 nM | IC50 (MDA-MB-231): 28000 nM | IC50 (BT-474): > 30000 nM | IC50 (HCC827): 94 nM | IC50 (PANC1): 3700 nM | IC50 (OVCAR-3): 150 nM | IC50 (ZR-75-1): 56 nM | IC50 (OPM-2): 99 nM | IC50 (SW-480): 140 nM | IC50 (KARPAS-299): 96 nM | IC50 (Colo-205): 90 nM | IC50 (DU4475): 72 nM | IC50 (NCI-N87): 2100 nM | IC50 (PC-3): 200 nM | IC50 (SK-BR-3): 56 nM | IC50 (OVCAR-5): 150 nM

Cc1cc(N2CCOCC2)ccc1Nc1nc(NC2CCCCC2)c2nc[nH]c2n1 [Compound A, N6-cyclohexyl-N2-(2-methyl-4-morpholino-phenyl)-9H-purine-2,6-diamine]
time of maximal induction of the p53 pathway (p53 pathway; 1 μM): ≤ 36 h | p53 pathway activation (p53, p21 protein) (p53 pathway; 1 μM, time course): activate the p53 pathway in a time- and dose-dependent manner | p53 protein induction (p53 pathway; increasing concentrations, 48 hours): induced p53 in a dose- and time-dependent manner | DNA content (ploidy) (HCT-116 cells): both aneuploidy, as seen in FIG. 3 by a broadening of the 2N and 4N peaks, as well as the formation of tetraploid (8N) cells | phosphorylation of serine 139 on H2AX (histone H2AX): induced by Compound A in a time-dependent manner | p21 mRNA normalized to GAPDH mRNA (p21 mRNA): induced in a time-dependent manner | chromosome segregation (A549 cells): causes chromosome segregation defects | survivin protein (survivin): decrease in survivin protein | site of p53 phosphorylation (p53): phosphorylated on serine 15
